Laboratory results reported in patent US6358885B1, “Substituted phenylheterocyclic herbicides” (Mississippi State University, priority 1992, dated 2002).
Values belong to the compound of their own block, whether it stands above or below them.

Columns and labels:
barnyardgrass [1] = assay: Test A preemergence/postemergence greenhouse plant response rating 0 to 10; format: in vivo, Echinochchloa crus-galli; settings: 0 to 10 scale, 0 is no effect, 10 is complete control
Procedure: (§1) Seeds of barnyardgrass (Echinochchloa crus-galli), cheatgrass (Bromus secalinus), cocklebur (Xanthium pensylvanicum), crabgrass (Digitaria spp.), giant foxtail (Setaria faberii), morningglory (Ipomoea spp.), sorghum (Sorghum bicolor), velvetleaf (Abutilon theophrasti), and wild oat (Avena fatua) were planted into a sandy loam soil and treated preemergence with test chemicals dissolved in a non-phytotoxic solvent. At the same time, these crop and weed species were also treated postemergence with test chemicals. Plants ranged in height from two to eighteen cm and were in the two to three leaf stage for the postemergence treatment. Treated plants and untreated controls were maintained in a greenhouse for approximately eleven days, after which all treated plants were compared to untreated controls and visually evaluated for injury. Plant response ratings, summarized in Table A, are based on a 0 to 10 scale where 0 is no effect and 10 is complete control. A dash (-) response means no test results.

cheatgrass = assay: as above; format: in vivo, Bromus secalinus; settings: 0 to 10 scale, 0 is no effect, 10 is complete control
Procedure: as §1

cocklebur [2] = assay: as above; format: in vivo, Xanthium pensylvanicum; settings: 0 to 10 scale, 0 is no effect, 10 is complete control
Procedure: as §1

crabgrass [3] = assay: as above; format: in vivo, Digitaria spp.; settings: 0 to 10 scale, 0 is no effect, 10 is complete control
Procedure: as §1

giant foxtail [4] = assay: as above; format: in vivo, Setaria faberii; settings: 0 to 10 scale, 0 is no effect, 10 is complete control
Procedure: as §1

morningglory [5] = assay: as above; format: in vivo, Ipomoea spp.; settings: 0 to 10 scale, 0 is no effect, 10 is complete control
Procedure: as §1

sorghum = assay: as above; format: in vivo, Sorghum bicolor; settings: 0 to 10 scale, 0 is no effect, 10 is complete control
Procedure: as §1

velvetleaf [6] = assay: as above; format: in vivo, Abutilon theophrasti; settings: 0 to 10 scale, 0 is no effect, 10 is complete control
Procedure: as §1

wild oat = assay: as above; format: in vivo, Avena fatua; settings: 0 to 10 scale, 0 is no effect, 10 is complete control
Procedure: as §1

barnyardgrass [7] = assay: Test H postemergence greenhouse plant response rating 0 to 10; format: in vivo, Echinochloa crus-galli; settings: 0 to 10 scale (0 no effect, 10 complete control)
From the text: (§2) Seeds of barnyardgrass (Echinochloa crus-galli), black nightshade (Solanum ptycanthum dunal), cocklebur (Xanthium pensylvanicum), common ragweed (Ambrosia elatior), corn (Zea mays), cotton (Gossypium hirsutam), crabgrass (Digitaria spp.), giant foxtail (Setaria faberii), jimsonweed (Datura stramonium), johnson grass (Sorghum halepense), morningglory (Ipomoea spp.), smartweed (Polygonum pensylvanicum), soybean (Glycine max), velvetleaf (Abutilon theophrasti) and purple nutsedge (Cyperus rotundus) tubers were planted into a silt loam soil. These crops and weeds were grown in the greenhouse until the plants ranged in height from two to eighteen cm (one to four leaf stage), then treated postemergence with the test chemicals dissolved in a non-phytotoxic solvent. Pots receiving these postemergence treatments were placed in the greenhouse and maintained according to routine greenhouse procedures. Treated plants and untreated controls were maintained in the greenhouse approximately 21 days after application of the test compound. Visual evaluations of plant injury responses were then recorded.

black nightshade = assay: as above; format: in vivo, Solanum ptycanthum dunal; settings: 0 to 10 scale (0 no effect, 10 complete control)
From the text: as §2

cocklebur [8] = assay: as above; format: in vivo, Xanthium pensylvanicum; settings: 0 to 10 scale (0 no effect, 10 complete control)
From the text: as §2

common ragweed = assay: as above; format: in vivo, Ambrosia elatior; settings: 0 to 10 scale (0 no effect, 10 complete control)
From the text: as §2

corn = assay: as above; format: in vivo, Zea mays; settings: 0 to 10 scale (0 no effect, 10 complete control)
From the text: as §2

cotton = assay: as above; format: in vivo, Gossypium hirsutam; settings: 0 to 10 scale (0 no effect, 10 complete control)
From the text: as §2

crabgrass [9] = assay: as above; format: in vivo, Digitaria spp.; settings: 0 to 10 scale (0 no effect, 10 complete control)
From the text: as §2

giant foxtail [10] = assay: as above; format: in vivo, Setaria faberii; settings: 0 to 10 scale (0 no effect, 10 complete control)
From the text: as §2

jimsonweed = assay: as above; format: in vivo, Datura stramonium; settings: 0 to 10 scale (0 no effect, 10 complete control)
From the text: as §2

johnson grass = assay: as above; format: in vivo, Sorghum halepense; settings: 0 to 10 scale (0 no effect, 10 complete control)
From the text: as §2

morningglory [11] = assay: as above; format: in vivo, Ipomoea spp.; settings: 0 to 10 scale (0 no effect, 10 complete control)
From the text: as §2

smartweed = assay: as above; format: in vivo, Polygonum pensylvanicum; settings: 0 to 10 scale (0 no effect, 10 complete control)
From the text: as §2

soybean = assay: as above; format: in vivo, Glycine max; settings: 0 to 10 scale (0 no effect, 10 complete control)
From the text: as §2

velvetleaf [12] = assay: as above; format: in vivo, Abutilon theophrasti; settings: 0 to 10 scale (0 no effect, 10 complete control)
From the text: as §2

purple nutsedge = assay: as above; format: in vivo, Cyperus rotundus; settings: 0 to 10 scale (0 no effect, 10 complete control)
From the text: as §2

- melting point: 104 to 105 °C
Compound: Clc1ccc(-c2nc3n(c2Cl)CCC=C3)c(Cl)c1 [Compound 1]
- Plant response rating, Barnyardgrass (barnyardgrass [1]; POSTEMERGENCE, Rate 1000 g/ha): 5
- Plant response rating, Barnyardgrass (barnyardgrass [1]; PREEMERGENCE, Rate 1000 g/ha): 2
- Plant response rating, Cheatgrass (cheatgrass; POSTEMERGENCE, Rate 1000 g/ha): 4
- Plant response rating, Cheatgrass (cheatgrass; PREEMERGENCE, Rate 1000 g/ha): 0
- Plant response rating, Cocklebur (cocklebur [2]; POSTEMERGENCE, Rate 1000 g/ha): 8
- Plant response rating, Cocklebur (cocklebur [2]; PREEMERGENCE, Rate 1000 g/ha): 0
- Plant response rating, Crabgrass (crabgrass [3]; POSTEMERGENCE, Rate 1000 g/ha): 5
- Plant response rating, Crabgrass (crabgrass [3]; PREEMERGENCE, Rate 1000 g/ha): 0
- Plant response rating, Giant foxtail (giant foxtail [4]; POSTEMERGENCE, Rate 1000 g/ha): 4
- Plant response rating, Giant foxtail (giant foxtail [4]; PREEMERGENCE, Rate 1000 g/ha): 5
- Plant response rating, Morningglory (morningglory [5]; POSTEMERGENCE, Rate 1000 g/ha): 10
- Plant response rating, Morningglory (morningglory [5]; PREEMERGENCE, Rate 1000 g/ha): 0
- Plant response rating, Sorghum (sorghum; POSTEMERGENCE, Rate 1000 g/ha): 4
- Plant response rating, Sorghum (sorghum; PREEMERGENCE, Rate 1000 g/ha): 0
- Plant response rating, Velvetleaf (velvetleaf [6]; POSTEMERGENCE, Rate 1000 g/ha): 10
- Plant response rating, Velvetleaf (velvetleaf [6]; PREEMERGENCE, Rate 1000 g/ha): 8
- Plant response rating, Wild oats (wild oat; POSTEMERGENCE, Rate 1000 g/ha): 3
- Plant response rating, Wild oats (wild oat; PREEMERGENCE, Rate 1000 g/ha): 0

Compound: Clc1ccc(-c2nc3n(c2Br)CCCC3)c(Cl)c1 [Compound 2]
- Plant response rating, Barnyardgrass (barnyardgrass [1]; POSTEMERGENCE, Rate 2000 g/ha): 9
- Plant response rating, Barnyardgrass (barnyardgrass [1]; PREEMERGENCE, Rate 2000 g/ha): 9
- Plant response rating, Cheatgrass (cheatgrass; POSTEMERGENCE, Rate 2000 g/ha): 7
- Plant response rating, Cheatgrass (cheatgrass; PREEMERGENCE, Rate 2000 g/ha): 6
- Plant response rating, Cocklebur (cocklebur [2]; POSTEMERGENCE, Rate 2000 g/ha): 10
- Plant response rating, Cocklebur (cocklebur [2]; PREEMERGENCE, Rate 2000 g/ha): 0
- Plant response rating, Crabgrass (crabgrass [3]; POSTEMERGENCE, Rate 2000 g/ha): 7
- Plant response rating, Crabgrass (crabgrass [3]; PREEMERGENCE, Rate 2000 g/ha): 8
- Plant response rating, Giant foxtail (giant foxtail [4]; POSTEMERGENCE, Rate 2000 g/ha): 9
- Plant response rating, Giant foxtail (giant foxtail [4]; PREEMERGENCE, Rate 2000 g/ha): 10
- Plant response rating, Morningglory (morningglory [5]; POSTEMERGENCE, Rate 2000 g/ha): 10
- Plant response rating, Morningglory (morningglory [5]; PREEMERGENCE, Rate 2000 g/ha): 2
- Plant response rating, Sorghum (sorghum; POSTEMERGENCE, Rate 2000 g/ha): 6
- Plant response rating, Sorghum (sorghum; PREEMERGENCE, Rate 2000 g/ha): 8
- Plant response rating, Velvetleaf (velvetleaf [6]; POSTEMERGENCE, Rate 2000 g/ha): 10
- Plant response rating, Velvetleaf (velvetleaf [6]; PREEMERGENCE, Rate 2000 g/ha): 10
- Plant response rating, Wild oats (wild oat; POSTEMERGENCE, Rate 2000 g/ha): 5
- Plant response rating, Wild oats (wild oat; PREEMERGENCE, Rate 2000 g/ha): 5

Compound: C#CCN1C(=O)COc2cc(F)c(-c3nn4c(c3Cl)CCCC4)cc21 [Compound 34]
- Barnyardgrass plant response rating (barnyardgrass [7]; Rate 4 g/ha): 0
- Barnyardgrass plant response rating (barnyardgrass [7]; Rate 8 g/ha): 0
- Barnyardgrass plant response rating (barnyardgrass [7]; Rate 16 g/ha): 0
- Black Nightshade plant response rating (black nightshade; Rate 4 g/ha): 5
- Black Nightshade plant response rating (black nightshade; Rate 8 g/ha): 10
- Black Nightshade plant response rating (black nightshade; Rate 16 g/ha): 10
- Cocklebur plant response rating (cocklebur [8]; Rate 4 g/ha): 5
- Cocklebur plant response rating (cocklebur [8]; Rate 8 g/ha): 10
- Cocklebur plant response rating (cocklebur [8]; Rate 16 g/ha): 10
- Common Ragweed plant response rating (common ragweed; Rate 4 g/ha): 0
- Common Ragweed plant response rating (common ragweed; Rate 8 g/ha): 1
- Common Ragweed plant response rating (common ragweed; Rate 16 g/ha): 2
- Corn G4689A plant response rating (corn; Rate 4 g/ha): 1
- Corn G4689A plant response rating (corn; Rate 8 g/ha): 1
- Corn G4689A plant response rating (corn; Rate 16 g/ha): 2
- Cotton plant response rating (cotton; Rate 4 g/ha): 10
- Cotton plant response rating (cotton; Rate 8 g/ha): 10
- Cotton plant response rating (cotton; Rate 16 g/ha): 10
- Crabgrass plant response rating (crabgrass [9]; Rate 4 g/ha): 0
- Crabgrass plant response rating (crabgrass [9]; Rate 8 g/ha): 0
- Crabgrass plant response rating (crabgrass [9]; Rate 16 g/ha): 0
- Giant Foxtail plant response rating (giant foxtail [10]; Rate 4 g/ha): 0
- Giant Foxtail plant response rating (giant foxtail [10]; Rate 8 g/ha): 0
- Giant Foxtail plant response rating (giant foxtail [10]; Rate 16 g/ha): 0
- Jimson weed plant response rating (jimsonweed; Rate 4 g/ha): 10
- Jimson weed plant response rating (jimsonweed; Rate 8 g/ha): 10
- Jimson weed plant response rating (jimsonweed; Rate 16 g/ha): 10
- Johnson Grass plant response rating (johnson grass; Rate 4 g/ha): 0
- Johnson Grass plant response rating (johnson grass; Rate 8 g/ha): 0
- Johnson Grass plant response rating (johnson grass; Rate 16 g/ha): 0
- Morningglory plant response rating (morningglory [11]; Rate 4 g/ha): 10
- Morningglory plant response rating (morningglory [11]; Rate 8 g/ha): 10
- Morningglory plant response rating (morningglory [11]; Rate 16 g/ha): 10
- Smartweed plant response rating (smartweed; Rate 4 g/ha): 5
- Smartweed plant response rating (smartweed; Rate 8 g/ha): 7
- Smartweed plant response rating (smartweed; Rate 16 g/ha): 8
- Soybean plant response rating (soybean; Rate 4 g/ha): 7
- Soybean plant response rating (soybean; Rate 8 g/ha): 7
- Soybean plant response rating (soybean; Rate 16 g/ha): 10
- Velvetleaf plant response rating (velvetleaf [12]; Rate 4 g/ha): 10
- Velvetleaf plant response rating (velvetleaf [12]; Rate 8 g/ha): 10
- Velvetleaf plant response rating (velvetleaf [12]; Rate 16 g/ha): 10
- Nutsedge plant response rating (purple nutsedge; Rate 4 g/ha): 0
- Nutsedge plant response rating (purple nutsedge; Rate 8 g/ha): 0
- Nutsedge plant response rating (purple nutsedge; Rate 16 g/ha): 0
